Some test systems named below: A549 NSCLC; SK-OV-3 ovarian; CCRF-CEM leukemia; HOP-62 NSCLC; CAKI-1 renal; SK-MEL-28 melanoma; OVCAR-5 ovarian; OVCAR-3 ovarian; MALME-3M melanoma; UO-31 renal.
Test in all cases: NCI-60 cell line screen, 48 h

“And” between values parts separate entries of the source, which are not always exact repeats. Equal entries are not always repeated.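 Assay format: 96-well plates, 48-hour exposure. Definition used: TGI = concentration required for complete inhibition of growth.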

With `COC(=O)CCC(C)[C@H]1CCC2C3CC[C@@H]4CC5(CC[C@]4(C)C3C[C@H](OC(C)=O)[C@@]21C)OOC1(CCCCC1)OO5` (stereo not given in full), the TGI is over 100 µM in the assay on A549 NSCLC; over 100 µM in the assay with SK-OV-3 ovarian; over 100 µM in the assay with CCRF-CEM leukemia; over 100 µM with HOP-62 NSCLC; 37 µM in the assay on CAKI-1 renal; over 100 µM in the assay on SK-MEL-28 melanoma. Moreover, the TGI was over 100 µM in the assay with OVCAR-5 ovarian, over 100 µM with OVCAR-3 ovarian, 60.3 µM with MALME-3M melanoma and 9.04 µM in the assay with UO-31 renal.
With `CCNC(=S)N/N=C(/C)c1cccc(/C(C)=N\NC(=S)NCC)n1`, the TGI in the assay on A549 NSCLC was over 82.9 µM; in the assay with SK-OV-3 ovarian, 73.8 µM; with CCRF-CEM leukemia, over 19.1 µM; with HOP-62 NSCLC it was over 100 µM; with CAKI-1 renal, 74.1 µM; in the assay on SK-MEL-28 melanoma it was over 100 µM. In addition, the TGI was over 72.8 µM in the assay on OVCAR-5 ovarian, over 94 µM in the assay with OVCAR-3 ovarian, over 44.6 µM in the assay with MALME-3M melanoma and over 63.6 µM in the assay on UO-31 renal.
For the compound `COC1=C(OC)C(=O)C(Cc2c(Cl)nc3sccn23)=C(C)C1=O`, the TGI came out at 25.1 µM in the assay with A549 NSCLC; 21.7 µM in the assay with SK-OV-3 ovarian; 5.44 µM in the assay on CCRF-CEM leukemia; 31.1 µM in the assay with HOP-62 NSCLC; 45 µM in the assay on CAKI-1 renal; 24.4 µM in the assay with SK-MEL-28 melanoma. Also, the TGI was 31.7 µM in the assay on OVCAR-5 ovarian, 25.8 µM in the assay with OVCAR-3 ovarian, 13.7 µM in the assay on MALME-3M melanoma and 23.6 µM in the assay with UO-31 renal.
In the case of `Cc1nc(C(=Nc2ccc(Br)cc2)Nn2cnnc2)no1`, the TGI with A549 NSCLC, in the assay with SK-OV-3 ovarian, with CCRF-CEM leukemia, with HOP-62 NSCLC, in the assay with CAKI-1 renal and in the assay on SK-MEL-28 melanoma was over 100 µM each time. Also, the TGI in the assay on OVCAR-5 ovarian, in the assay with OVCAR-3 ovarian, in the assay on MALME-3M melanoma and in the assay with UO-31 renal was over 100 µM each time.
Take `C/C(CCN(C)C)=N/O`: the TGI in the assay with A549 NSCLC amounted to 17.4 µM; in the assay on SK-OV-3 ovarian, 54.1 µM; in the assay on CCRF-CEM leukemia it was 7.14 µM; in the assay on HOP-62 NSCLC, 57 µM; with CAKI-1 renal, 24.2 µM; with SK-MEL-28 melanoma, 14.8 µM. Besides, the TGI with OVCAR-5 ovarian stood at 32.9 µM; in the assay on OVCAR-3 ovarian, 2.04 µM; in the assay with MALME-3M melanoma, 10.8 µM; in the assay on UO-31 renal, 31.5 µM.
With `O=C(O)[C@H]1NC[C@H]2C(Br)=NO[C@@H]12`, the TGI in the assay with A549 NSCLC, in the assay on SK-OV-3 ovarian, in the assay on CCRF-CEM leukemia, in the assay with HOP-62 NSCLC, in the assay on CAKI-1 renal and in the assay on SK-MEL-28 melanoma was over 100 µM each time. Moreover, the TGI in the assay on OVCAR-5 ovarian, in the assay on OVCAR-3 ovarian, with MALME-3M melanoma and with UO-31 renal was over 100 µM each time.
On to `C[C@H]1CCC/C=C/[C@@H]2C[C@H](OC3OC(CO)C(O)C(O)C3O)C[C@H]2[C@H](O)/C=C/C(=O)O1` (stereo not given in full), for which the TGI is over 100 µM in the assay on A549 NSCLC; over 100 µM in the assay with SK-OV-3 ovarian; over 100 µM in the assay with CCRF-CEM leukemia; over 100 µM with HOP-62 NSCLC; over 100 µM with CAKI-1 renal; 87.3 µM in the assay with SK-MEL-28 melanoma. Besides, the TGI was over 100 µM in the assay with OVCAR-5 ovarian, over 100 µM in the assay with OVCAR-3 ovarian, 33.1 µM in the assay with MALME-3M melanoma and over 100 µM in the assay on UO-31 renal.
As to `COc1ccc(S(=O)(=O)NC(CCC(=O)NC(N)=O)C(=O)NC(N)=O)cc1` (stereo not given), the TGI with A549 NSCLC, in the assay on SK-OV-3 ovarian, with CCRF-CEM leukemia, in the assay on HOP-62 NSCLC, in the assay with CAKI-1 renal and in the assay with SK-MEL-28 melanoma was over 100 µM each time. Further, the TGI in the assay on OVCAR-5 ovarian, with OVCAR-3 ovarian, with MALME-3M melanoma and in the assay on UO-31 renal was over 100 µM throughout.
`Cc1ccc(C(=O)Nc2ccc(CP(=O)(O)O)cc2CP(=O)(O)O)cc1N`: the TGI with A549 NSCLC, in the assay on SK-OV-3 ovarian, in the assay on CCRF-CEM leukemia, with HOP-62 NSCLC, in the assay on CAKI-1 renal and with SK-MEL-28 melanoma was over 100 µM each time. For the same compound, the TGI with OVCAR-5 ovarian, in the assay on OVCAR-3 ovarian, with MALME-3M melanoma and with UO-31 renal was over 100 µM in each case.
On to `CN(C)c1cccc2c(S(=O)(=O)NCCN)cccc12`, for which the TGI with A549 NSCLC, in the assay on SK-OV-3 ovarian, in the assay with CCRF-CEM leukemia, with HOP-62 NSCLC, with CAKI-1 renal and with SK-MEL-28 melanoma was over 100 µM in each case. Further, the TGI in the assay with OVCAR-5 ovarian, in the assay on OVCAR-3 ovarian, in the assay on MALME-3M melanoma and in the assay on UO-31 renal was over 100 µM in each case.
Consider `[N-]=[N+]=CC(=O)C1CCN(c2ccccc2)C1=O` (stereo not given), for which the TGI in the assay on A549 NSCLC, in the assay on SK-OV-3 ovarian, with CCRF-CEM leukemia, in the assay with HOP-62 NSCLC, in the assay with CAKI-1 renal and in the assay on SK-MEL-28 melanoma was over 10 µM throughout. Moreover, the TGI in the assay with OVCAR-5 ovarian, in the assay with OVCAR-3 ovarian, in the assay with MALME-3M melanoma and in the assay on UO-31 renal was over 10 µM in each case.
In the case of `COc1ccccc1N=Nc1c(O)ccc2ccccc12`, the TGI in the assay with A549 NSCLC was over 100 µM; in the assay on SK-OV-3 ovarian it was 29.5 µM and 38.3 µM; in the assay on CCRF-CEM leukemia it was over 100 µM; in the assay with HOP-62 NSCLC, 30.9 µM and 34.6 µM; in the assay on CAKI-1 renal, 38.8 µM and 48.6 µM; with SK-MEL-28 melanoma it was over 100 µM. Besides, the TGI with OVCAR-5 ovarian was over 100 µM; in the assay on OVCAR-3 ovarian it was over 100 µM; in the assay on MALME-3M melanoma, 16.2 µM and > 100 µM; with UO-31 renal, 39.1 µM.
Consider `C/C(=N/NC(=S)Nc1ccc(C)cc1)c1ccccn1`, for which the TGI in the assay with A549 NSCLC was determined as 14 µM; in the assay on SK-OV-3 ovarian, 17 µM; in the assay with CCRF-CEM leukemia, 4.64 µM; in the assay on HOP-62 NSCLC, 5.55 µM; with CAKI-1 renal it was 13.9 µM; with SK-MEL-28 melanoma it was 24.3 µM. In addition, the TGI came out at 9.55 µM in the assay on OVCAR-5 ovarian, 12.2 µM in the assay on OVCAR-3 ovarian, 8.71 µM in the assay with MALME-3M melanoma and 12.6 µM with UO-31 renal.
As to `CCCCCCCCCCCCCCCCNc1nc(=O)n(C2OC(C)C(O)C2O)cc1F` (stereo not given), the TGI came to 48 µM in the assay with A549 NSCLC; 37.4 µM in the assay with SK-OV-3 ovarian; 42.6 µM with CCRF-CEM leukemia; 33.8 µM with HOP-62 NSCLC; 41.8 µM in the assay on CAKI-1 renal; 37.5 µM with SK-MEL-28 melanoma. Besides, the TGI in the assay on OVCAR-5 ovarian stood at 36.7 µM; in the assay with OVCAR-3 ovarian, 34.8 µM; in the assay on MALME-3M melanoma, 40.7 µM; in the assay with UO-31 renal it was 27.2 µM.
